What was measured:
Slug promoter = experiment: ChIP assay on the Slug promoter, H1299 cells; format: cell-based, human; details: vs Scr
Description: Fig. 6 Nt-acetylation of histone H4 antagonizes phosphorylation of histone H4 serine 1 to regulate Slug expression. a Western blot analysis of indicated histone H4 modifications in Scr and NatD-KD H1299 cells. Histone H4 served as a loading control. b ChIP analysis of the enrichment of indicated histone H4 modifications on the Slug promoter in Scr and NatD-KD H1299 cells. IgG served as a negative control. Results are shown as mean ± s.d. from three independent experiments; two-tailed Student’s t-test, *P < 0.05, **P < 0.01 compared with the Scr control. c ChIP analysis of the enrichment of H3K4me3 and H3K27me3 on the Slug promoter in Scr and NatD-KD H1299 cells. IgG served as a negative control. Results are shown as mean ± s.d. from three independent experiments; two-tailed Student’s t-test, **P < 0.01 compared with the Scr control. d Western blot analysis of indicated proteins from H1299 cells overexpressing NatDΔ or wild-type NatD. Histone H4 served as a loading control. e ChIP analysis of the enrichment of Nt-ac-H4 and H4S1ph on Slug promoter in H1299 cells overexpressing NatDΔ or wild-type NatD. IgG served as a negative control. Results are shown as mean ± s.d. from three independent experiments; two-tailed Student’s t-test, *P < 0.05, **P < 0.01 compared with the wild-type control
Fig. 7 Downregulation of Nt-acetylation of histone H4 facilitates nuclear accumulation of CK2α and its binding to histone H4 in lung cancer cells. a Representative confocal scanning images of CK2α localization in Scr and H1299 cells (left panel). The staining intensity of CK2α was quantified by software ImageJ from NIH (right diagram). Scale bars, 5 μm. […] Equal peptide biotinylated on C terminus is shown by dot blot analysis with streptavidin (middle panel). […] IgG served as a negative control. Results are shown as mean ± s.d. from three independent experiments; two-tailed Student’s t-test, **P < 0.01 compared with the indicated control. g Quantitative real-time PCR analysis of mRNA levels of CK2α and Slug normalized to GAPDH in Scr and NatD-KD H1299 cells in the absence or presence of siRNA to CK2α. NC, siRNA mimics negative control. Data are mean ± s.d. of three independent experiments; Student’s t-test, *P < 0.05, **P < 0.01 compared with the indicated control. h Western blot analysis of indicated proteins from Scr and NatD-KD H1299 cells in the absence or presence of siRNA to CK2α.
ChIP assays were performed with H1299 cells in accordance with standard protocols. Normal rabbit IgG served as the control. ChIP samples were analyzed by quantitative real-time PCR using the FastStart Universal SYBR Green Master (Roche). A standard curve was prepared for each set of primers using serial titration of the input DNA. The percentage of ChIP DNA was calculated relative to the input DNA from primer-specific standard curves using the Rotor-Gene 6000 Series Software 1.7. The primer sequences for ChIP are listed in Supplementary Table 4. Antibodies used were: H4S1ph (Abcam; ab14723), H4K5ac (Millipore; CS204381), H4R3me2a (Active Motif; 39705), H4R3me2s (Abcam; ab5823), CK2α (Abcam; ab70774), H3K4me3 (Abcam; ab8580), and H3K27me3 (Abcam; ab6002).

LLC cells = experiment: Tail vein injection in C57BL/6 mice, LLC cells; format: in vivo, murine; details: 30 days, n = 5, vs Scr
Procedure: All animal care and handling procedures were performed in accordance with the National Institutes of Health Guide for the Care and Use of Laboratory Animals, and were approved by the Institutional Review Board of Nanjing University (Nanjing, China). Female SCID mice and C57BL/6 mice (6–8 week old) were purchased from the Model Animal Research Center of Nanjing University (Nanjing, China), and were maintained under specific pathogen-free conditions at Nanjing University. The sample size was chosen with adequate power on the basis of the literature and our previous experience[46] and for each experiment it is indicated in the figure legend. […] Lung nodules and progression were monitored and quantified using the bioluminescence system (Caliper IVIS Lumina XR) or by counting under a dissecting microscope. […] Mice were killed at day 28 or day 30 to collect lungs, and lung nodules in serial sections were quantified microscopically. […] Lung nodules and progression were monitored and quantified using the bioluminescence system (Caliper IVIS Lumina XR). Mice were killed at day 14 or day 21 to collect lungs, and lung nodules in serial sections were quantified microscopically. […]
Representative blots from three independent experiments. […] (bottom) Cell migration and invasion expressed as a percentage of Scr control. […]

NatD-KD2: Human NatD shRNA KD2: 5′-GGTTGAATGTCTCCATTGA-3′, lentiviral (shRNA lentiviral)
enrichment of CK2α on Slug promoter (Slug promoter): significantly increased | enrichment of H3K4me3 on Slug promoter (Slug promoter): significantly reduced | enrichment of H3K27me3 on Slug promoter (Slug promoter): increased | enrichment of H4R3me2a and H4K5ac on Slug promoter (Slug promoter): significantly reduced | enrichment of H4R3me2s on Slug promoter (Slug promoter): unchanged | enrichment of H4S1ph on Slug promoter (Slug promoter): significantly increased | enrichment of Nt-ac-H4 on Slug promoter (Slug promoter): significantly reduced | number of tumor nodules (LLC cells): significantly fewer tumor nodules

— publication PMC5640650, “NatD promotes lung cancer progression by preventing histone H4 serine phosphorylation to activate Slug expression” (Nature Communications, 2017)
